Measured values taken from patent US9663523B2, “BET protein-inhibiting 5-aryltriazoleazepines” (BAYER PHARMA AKTIENGESELLSCHAFT, priority 2012, dated 2017).

Legend:
[1] = target: BRD4(1) (amino acids 44-168) (Homo sapiens (Human), UniProt O60885); test: BRD4 binding strength, TR-FRET (HTRF) assay of BRD4(1) / acetylated histone H4 peptide interaction; details: inhibition of BRD4(1)/Ac-H4 peptide interaction
From the text: To assess the BRD4 binding strength of the compounds according to the invention, the ability thereof to inhibit the interaction between BRD4 and acetylated histone H4 in a dose-dependent manner was quantified. For this purpose, a time-resolved fluorescence resonance energy transfer (TR-FRET) assay was used, which measures the binding between N-terminally His6-tagged BRD4(1) (amino acids 44-168) and a synthetic acetylated histone H4 (Ac-H4) peptide with sequence […]-biotin. The recombinant BRD4 protein produced in-house according to Filippakopoulos et al., Cell, 2012, 149:214-231 was expressed in E. coli and purified by means of (Ni-NTA) affinity and (Sephadex G-75) size exclusion chromatography. The Ac-H4 peptide can be purchased, for example, from Biosyntan (Berlin, Germany). […] For this purpose, 100-fold concentrated solutions in DMSO were prepared by serial dilutions (1:3.4) of a 2 mM stock solution into a clear, 384-well microtitre plate (Greiner Bio-One, Frickenhausen, Germany). From this, 50 nl were transferred into a black test plate (Greiner Bio-One, Frickenhausen, Germany). […] This was followed by a 10-minute incubation step at 22° C. for the pre-equilibration of putative complexes between BRD4 and the substances. Subsequently, 3 μl of a solution of 1.67 times the concentration (in assay buffer) consisting of Ac-H4 peptide (83.5 nM) and TR-FRET detection reagents [16.7 nM anti-6His-XL665 and 3.34 nM streptavidin cryptate (both from Cisbio Bioassays, Codolet, France), and 668 mM potassium fluoride (KF)] were added. The mixture was then incubated in the dark at 22° C. for one hour and then at 4° C. overnight. The formation of BRD4/Ac-H4 complexes was determined by the measurement of the resonance energy transfer from the streptavidin-Eu cryptate to the anti-6His-XL665 antibody present in the reaction. […] The ratio of the emissions at 665 nm and at 622 nm was taken as an indicator of the amount of BRD4/Ac-H4 complexes formed.

MOLM-13 cells = test: Cell proliferation (alamarBlue), MOLM-13; assay type: cell-based; details: Homo sapiens, acute myeloid leukaemia cell line, 96 hours incubation
Method: (§1) The ability of the compounds according to the invention to inhibit the proliferation of various cell lines was determined.
(§2) Cell viability was determined by means of the alamarBlue® reagent (Invitrogen). The cells were sown at different densities (MOLM-13, LAPC-4, MOLP-8 and MDA-MB-231: 4000 cells/well; B16F10: 400 cells/well) in 100 μl of growth medium on 96-well microtitre plates. After overnight incubation at 37° C., the fluorescence values (CI values) were determined. The plates were then treated with various substance dilutions and incubated at 37° C. for 96 hours (MOLM-13, MDA-MB-231 and B16F10 cells), 120 hours (MOLP-8 cells) or 168 hours (LAPC-4 cells). Subsequently, the fluorescence values were determined (CO values). For the data analysis, the CI values were subtracted from the CO values and the results were compared between cells which had been treated with various dilutions of the substance or only with buffer solution.
(§3) The compounds according to the invention were tested in the cell lines in Table 2, which represent the indications specified by way of example:
(§4) The indications corresponding to the different cell lines can be found in Table 2.

LAPC-4 cells = test: Cell proliferation (alamarBlue), LAPC-4; assay type: cell-based; details: Homo sapiens, LAPC4; prostate carcinoma (androgen receptor-positive) cell line, 168 hours incubation
Method: as §1
as §2, with “values).” for “values). For the data analysis, the CI values were subtracted from the CO values and the results were compared between cells which had been treated with various dilutions of the substance or only with buffer solution.”
as §3, §4

B16F10 cells = test: Cell proliferation (alamarBlue), B16F10; assay type: cell-based; details: Mus musculus, B16-F10; melanoma cell line, 96 hours incubation
Method: as §1, §2, §3, §4

MDA-MB-231 cells = test: Cell proliferation (alamarBlue), MDA-MB-231; assay type: cell-based; details: Homo sapiens, mammary carcinoma cell line, 96 hours incubation
Method: as §1, §2, §3, §4

MOLP-8 cells = test: Cell proliferation (alamarBlue), MOLP-8; assay type: cell-based; details: Homo sapiens, multiple myeloma cell line, 120 hours incubation
Method: as §1
as §2, with “values).” for “values). For the data analysis, the CI values were subtracted from the CO values and the results were compared between cells which had been treated with various dilutions of the substance or only with buffer solution.”
as §3, §4

IC50 [1] | IC50 (MOLM-13 cells) | IC50 (B16F10 cells) | IC50 (MDA-MB-231 cells) | Structure (SMILES) | IC50 (LAPC-4 cells) | IC50 (MOLP-8 cells)
450 nM | 330 nM | 400 nM | 1290 nM | Cc1nnc2n1-c1ccccc1C(c1ccc(Cl)cc1)=C[C@H]2CC(=O)N1CC2CCC(C1)O2 (single isomer, unassigned; (-)) [Example 33] | 150 nM | 
30 nM | 310 nM | 150 nM | 320 nM | CCNC(=O)CC1C=C(c2ccc(Cl)cc2)c2ccccc2-n2c(C)nnc21 (stereo in doubt) [Example 13, (−)-2-[(4R)-6-(4-chlorophenyl)-1-methyl-4H-[1,2,4]triazolo[4,3-a][1]benzazepin-4-yl]-N-ethylacetamide] | 60 nM | 
40 nM | 230 nM | 130 nM | 350 nM | Cc1nnc2n1-c1ccccc1C(c1ccc(Cl)cc1)=CC2CC(=O)N1CCOCC1 (stereo in doubt) [Example 15, (−)-2-[(4R)-6-(4-chlorophenyl)-1-methyl-4H-[1,2,4]triazolo[4,3-a][1]benzazepin-4-yl]-1-(morpholin-4-yl)ethanone] | 60 nM | 
90 nM | 340 nM | 280 nM | 570 nM | Cc1nnc2n1-c1ccccc1C(c1ccc(Cl)cc1)=CC2CC(=O)N1CC(F)C1 (stereo in doubt) [Example 17, (−)-2-[(4R)-6-(4-chlorophenyl)-1-methyl-4H-[1,2,4]triazolo[4,3-a][1]benzazepin-4-yl]-1-(3-fluoroazetidin-1-yl)ethanone] | 140 nM | 
80 nM | 170 nM | 190 nM | 480 nM | Cc1nnc2n1-c1ccccc1C(c1ccc(Cl)cc1)=CC2CC(=O)Nc1ccc2c(c1)CC(=O)N2 (stereo in doubt) [Example 21, (−)-2-[(4R)-6-(4-chlorophenyl)-1-methyl-4H-[1,2,4]triazolo[4,3-a][1]benzazepin-4-yl]-N-(2-oxo-2,3-dihydro-1H-indol-5-yl)acetamide] | 80 nM | 
90 nM | 400 nM | 240 nM | 410 nM | Cc1nnc2n1-c1ccccc1C(c1ccc(Cl)cc1)=CC2Cc1nc(C(C)C)no1 (stereo in doubt) [Example 36, (−)-(4R)-6-(4-chlorophenyl)-1-methyl-4-{[3-(propan-2-yl)-1,2,4-oxadiazol-5-yl]methyl}-4H-[1,2,4]triazolo[4,3-a][1]benzazepine] | 160 nM | 
50 nM | 170 nM | 140 nM |  | Cc1nnc(CC2C=C(c3ccc(Cl)cc3)c3ccccc3-n3c(C)nnc32)s1 (stereo in doubt) [Example 42, (+)-(4R)-6-(4-chlorophenyl)-1-methyl-4-[(5-methyl-1,3,4-thiadiazol-2-yl)methyl]-4H-[1,2,4]triazolo[4,3-a][1]benzazepine] |  | 110 nM
790 nM | 880 nM | 1170 nM |  | Cc1nnc2n1-c1ccc(OC(F)(F)F)cc1C(c1ccc(Cl)cc1)=CC2CC(=O)OC(C)(C)C (stereo in doubt) [Example 50, tert-butyl (−)-[(4R)-6-(4-chlorophenyl)-1-methyl-8-(trifluoromethoxy)-4H-[1,2,4]triazolo[4,3-a][1]benzazepin-4-yl]acetate] |  | 1050 nM
 | 3910 nM | 1000 nM |  | Cc1nnc2n1-c1ccccc1C(c1ccc(Cl)cc1)=CC2CC(=O)OC(C)(C)C (centres unmarked) [Example 8, tert-butyl [6-(4-chlorophenyl)-1-methyl-4H-[1,2,4]triazolo[4,3-a][1]benzazepin-4-yl]acetate] | 820 nM | 4800 nM
730 nM | 2630 nM | 3030 nM |  | Cc1nnc2n1-c1ccccc1C(c1cccc(Cl)c1)=CC2CC(=O)N1CC2(COC2)C1 (centres unmarked) [Example 10, 2-[6-(3-chlorophenyl)-1-methyl-4H-[1,2,4]triazolo[4,3-a][1]benzazepin-4-yl]-1-(2-oxa-6-azaspiro[3.3]hept-6-yl)ethanone] | 1610 nM | 1290 nM
 | 330 nM | 360 nM | 800 nM | Cc1nnc2n1-c1ccccc1C(c1ccc(Cl)cc1)=CC2CC(=O)N1CC2(CCS2(=O)=O)C1 (centres unmarked) [Example 18, 2-[6-(4-chlorophenyl)-1-methyl-4H-[1,2,4]triazolo[4,3-a][1]benzazepin-4-yl]-1-(1,1-dioxido-1-thia-6-azaspiro[3.3]hept-6-yl)ethanone] |  | 
190 nM | 310 nM | 420 nM |  | CCNC(=O)C[C@@H]1C=C(c2ccc(Cl)cc2)c2cc(OC(F)(F)F)ccc2-n2c(C)nnc21 [Example 52, 2-[(4R)-6-(4-chlorophenyl)-1-methyl-8-(trifluoromethoxy)-4H-[1,2,4]triazolo[4,3-a][1]benzazepin-4-yl]-N-ethylacetamide] |  | 260 nM
80 nM | 150 nM | 220 nM |  | Cc1nnc2n1-c1ccc(OC(F)(F)F)cc1C(c1ccc(Cl)cc1)=C[C@H]2CC(=O)NCCN1CCOCC1 [Example 53, 2-[(4R)-6-(4-chlorophenyl)-1-methyl-8-(trifluoromethoxy)-4H-[1,2,4]triazolo[4,3-a][1]benzazepin-4-yl]-N-[2-(morpholin-4-yl)ethyl]acetamide] |  | 110 nM
130 nM | 300 nM | 500 nM |  | Cc1nnc(CC2C=C(c3ccc(Cl)cc3)c3cc(OC(F)(F)F)ccc3-n3c(C)nnc32)o1 (centres unmarked) [Example 54, 6-(4-chlorophenyl)-1-methyl-4-[(5-methyl-1,3,4-oxadiazol-2-yl)methyl]-8-(trifluoromethoxy)-4H-[1,2,4]triazolo[4,3-a][1]benzazepine] |  | 360 nM
90 nM | 180 nM | 270 nM |  | Cc1nnc(C[C@@H]2C=C(c3ccc(Cl)cc3)c3cc(OC(F)(F)F)ccc3-n3c(C)nnc32)o1 [Example 55, (4R)-6-(4-chlorophenyl)-1-methyl-4-[(5-methyl-1,3,4-oxadiazol-2-yl)methyl]-8-(trifluoromethoxy)-4H-[1,2,4]triazolo[4,3-a][1]benzazepine] |  | 170 nM
180 nM | 150 nM | 220 nM |  | Cc1nnc2n1-c1ccc(OC(F)(F)F)cc1C(c1ccc(Cl)cc1)=C[C@H]2CC(=O)N1CCN2C(=O)CCC2C1 (stereo partly drawn) [Example 56, 2-{[(4R)-6-(4-chlorophenyl)-1-methyl-8-(trifluoromethoxy)-4H-[1,2,4]triazolo[4,3-a][1]benzazepin-4-yl]acetyl}hexahydropyrrolo[1,2-a]pyrazin-6(2H)-one] |  | 120 nM
270 nM | 410 nM | 570 nM |  | Cc1nnc2n1-c1ccccc1C(c1ccc(Cl)cc1)=C[C@H]2Cc1nnc(COCc2ccccc2)o1 [Example 57, (4R)-4-({5-[(benzyloxy)methyl]-1,3,4-oxadiazol-2-yl}methyl)-6-(4-chlorophenyl)-1-methyl-4H-[1,2,4]triazolo[4,3-a][1]benzazepine] |  | 420 nM
